Test results: PubChem BioAssay AID248 (DTP/NCI, 2004)
Several values for one entry are separate records, joined by “and”; a condition that tells them apart may be missing. Identical values can stand only once. Toxic doses and inconclusive results are not listed.

Tested on: L1210 leukemia ip in BDF1 mice, survival T/C
Assay: NCI In Vivo Anticancer Drug Screen. Data for tumor model L1210 Leukemia (intraperitoneal) in B6D2F1 (BDF1) mice
Settings: endpoint: mean survival time, higher = longer survival
How it was run: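 Tumor cells were implanted, animals were treated, and survival was followed. The result divides the treated measurement by the vehicle-control measurement.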

[1] = dose: 50.0 mg/kg/injection, schedule: Q01DX009 (ip), vehicle: saline with Tween-80
[2] = dose: 100.0 mg/kg/injection, schedule: Q01DX009 (ip), vehicle: saline with Tween-80
[3] = dose: 50.0 mg/kg/injection, schedule: Q01DX009 (ip), vehicle: Klucel (hydroxypropylcellulose) (HPC)
[4] = dose: 100.0 mg/kg/injection, schedule: Q01DX009 (ip), vehicle: Klucel (hydroxypropylcellulose) (HPC)
[5] = dose: 100.0 mg/kg/injection, schedule: Q04DX003 (ip), vehicle: Klucel (hydroxypropylcellulose) (HPC)
[6] = dose: 200.0 mg/kg/injection, schedule: Q01DX009 (ip), vehicle: Klucel (hydroxypropylcellulose) (HPC)
[7] = dose: 200.0 mg/kg/injection, schedule: Q04DX003 (ip), vehicle: Klucel (hydroxypropylcellulose) (HPC)
[8] = dose: 400.0 mg/kg/injection, schedule: Q04DX003 (ip), vehicle: Klucel (hydroxypropylcellulose) (HPC)
[9] = dose: 100.0 mg/kg/injection, schedule: Q04DX003 (ip), vehicle: saline with Tween-80
[10] = dose: 200.0 mg/kg/injection, schedule: Q04DX003 (ip), vehicle: saline with Tween-80
[11] = dose: 400.0 mg/kg/injection, schedule: Q04DX003 (ip), vehicle: saline with Tween-80

## OC1c2ccccc2-c2ccc(Cl)cc21 (configuration not stated)
dose: 25.0 mg/kg/injection, schedule: Q01DX009 (ip), vehicle: saline with Tween-80
  T/C: 97 % of control
[1]
  T/C: 106 % of control
[2]
  T/C: 100 % of control and 90 % of control

## CC(C)(C)c1ccc(S(=O)(=O)Cl)cc1
dose: 100.0 mg/kg/injection, schedule: Q04DX002 (ip), vehicle: Klucel (hydroxypropylcellulose) (HPC)
  T/C: 97 % of control
dose: 200.0 mg/kg/injection, schedule: Q04DX002 (ip), vehicle: Klucel (hydroxypropylcellulose) (HPC)
  T/C: 104 % of control
dose: 400.0 mg/kg/injection, schedule: Q04DX002 (ip), vehicle: Klucel (hydroxypropylcellulose) (HPC)
  T/C: 90 % of control

## CC(C)=CCN1CCN=C(c2ccccc2)c2cc(Cl)ccc21
[3]
  T/C: 100 % of control
[4]
  T/C: 105 % of control
[5]
  T/C: 102 % of control
[6]
  T/C: 94 % of control
[7]
  T/C: 98 % of control
[8]
  T/C: 93 % of control

## C1=C(c2ccccc2)c2ccccc2C1(c1ccccc1)c1ccccc1
[9]
  T/C: 97 % of control
[10]
  T/C: 94 % of control
[11]
  T/C: 94 % of control

## COc1ccc(/C=C2\C(=O)OC(=O)\C2=C\c2ccc(OC)c(OC)c2)cc1OC
[4]
  T/C: 100 % of control
[5]
  T/C: 102 % of control
[6]
  T/C: 97 % of control
[7]
  T/C: 102 % of control
[8]
  T/C: 96 % of control

## CN(C)C=O.CN(C)C=O.[Cl][Sn]([Cl])([Cl])[Cl]
[3]
  T/C: 103 % of control
[4]
  T/C: 93 % of control
[5]
  T/C: 92 % of control
[7]
  T/C: 92 % of control

## CC(=O)Nc1ccc(/C=N/NC(=S)Nc2cccc3cccnc23)cc1
dose: 100.0 mg/kg/injection, schedule: Q01DX001 (ip), vehicle: saline
  T/C: 92 % of control
dose: 200.0 mg/kg/injection, schedule: Q01DX001 (ip), vehicle: saline
  T/C: 97 % of control
dose: 400.0 mg/kg/injection, schedule: Q01DX001 (ip), vehicle: saline
  T/C: 97 % of control

## O=[N+]([O-])c1ccc(/C=N/C(/N=C/c2ccc([N+](=O)[O-])cc2)c2ccc([N+](=O)[O-])cc2)cc1
dose: 75.0 mg/kg/injection, schedule: Q01DX009 (ip), vehicle: carboxymethylcellulose (CMC)
  T/C: 94 % of control
dose: 100.0 mg/kg/injection, schedule: Q04DX003 (ip), vehicle: carboxymethylcellulose (CMC)
  T/C: 97 % of control
dose: 150.0 mg/kg/injection, schedule: Q01DX009 (ip), vehicle: carboxymethylcellulose (CMC)
  T/C: 90 % of control
dose: 200.0 mg/kg/injection, schedule: Q04DX003 (ip), vehicle: carboxymethylcellulose (CMC)
  T/C: 95 % of control
dose: 300.0 mg/kg/injection, schedule: Q01DX009 (ip), vehicle: carboxymethylcellulose (CMC)
  T/C: 92 % of control
dose: 400.0 mg/kg/injection, schedule: Q04DX003 (ip), vehicle: carboxymethylcellulose (CMC)
  T/C: 92 % of control

## COC(=O)c1cn2c(c1C(=O)OC)CCC2
dose: 12.5 mg/kg/injection, schedule: Q01DX009 (ip), vehicle: other
  T/C: 93 % of control
dose: 25.0 mg/kg/injection, schedule: Q01DX009 (ip), vehicle: other
  T/C: 96 % of control
dose: 50.0 mg/kg/injection, schedule: Q01DX009 (ip), vehicle: other
  T/C: 222 % of control
dose: 59.0 mg/kg/injection, schedule: Q01DX009 (ip), vehicle: other
  T/C: 94 % of control and 113 % of control
dose: 89.0 mg/kg/injection, schedule: Q01DX009 (ip), vehicle: other
  T/C: 99 % of control and 102 % of control
dose: 100.0 mg/kg/injection, schedule: Q01DX009 (ip), vehicle: other
  T/C: 459 % of control
dose: 133.0 mg/kg/injection, schedule: Q01DX009 (ip), vehicle: other
  T/C: 93 % of control and 106 % of control
dose: 300.0 mg/kg/injection, schedule: Q01DX009 (ip), vehicle: other
  T/C: 116 % of control

## Clc1nc2nc(Cl)n(Cl)c2nc1Cl
[1]
  T/C: 96 % of control
[2]
  T/C: 95 % of control
[9]
  T/C: 98 % of control
dose: 200.0 mg/kg/injection, schedule: Q01DX009 (ip), vehicle: saline with Tween-80
  T/C: 91 % of control
[10]
  T/C: 89 % of control
[11]
  T/C: 96 % of control
